These compounds were tested against 229E Mpro (Human coronavirus 229E (HCoV-229E), UniProt P0C6X1) (assay: 229E Mpro activity). Details: 229E Mpro EC50.
Format: biochemical
Method: Compounds are assayed using standard methods to assess compound activity and IC50. […] The assay buffer contains 20 mM of Tris-HCl (pH 7.3), 100 mM of NaCl, 1 mM of EDTA, 5mM of TCEP and 0.1% BSA.

Sequence of 229E Mpro (P0C6X1 2966-3267 limits assumed): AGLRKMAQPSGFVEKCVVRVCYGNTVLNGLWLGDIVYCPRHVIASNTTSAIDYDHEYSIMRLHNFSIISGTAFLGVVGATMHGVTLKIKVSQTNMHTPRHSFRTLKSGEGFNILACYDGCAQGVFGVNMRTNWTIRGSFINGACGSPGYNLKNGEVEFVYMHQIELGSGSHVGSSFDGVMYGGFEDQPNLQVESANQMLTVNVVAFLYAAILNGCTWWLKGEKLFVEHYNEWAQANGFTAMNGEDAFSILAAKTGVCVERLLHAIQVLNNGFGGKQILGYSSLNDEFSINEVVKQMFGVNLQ

Question: With COc1cccc2[nH]c(C(=O)N[C@H](CC(C)C)C(=O)N[C@@H](CC3CCNC3=O)C(=O)CO)cc12 (stereo partly drawn) [Compound 740, N-[(1R)-1-[[(1S)-3-hydroxy-2-oxo-1-[[(3S)-2-oxopyrrolidin-3-yl]methyl]propyl]carbamoyl]-3-methyl-butyl]-4-methoxy-1H-indole-2-carboxamide] as the compound, how does the EC50 read?
Answer: 10 to 30 µM

Same assay, conditions: read-out: 229E Mpro EC50

Question: N#C[C@H](C[C@@H]1CCNC1=O)NC(=O)C1CC2(CCCCC2)CN1C(=O)c1cc2ccc(Cl)c(Cl)c2[nH]1 (single isomer, unassigned) [986 (Isomer 2)] was tested. Which EC50 did it give?
Answer: > 30 µM

Question: Which EC50 does the source give for CN(C(=O)c1cc2cccc(Cl)c2[nH]1)[C@@H](CC1CC1)C(=O)N[C@H](C#N)C[C@@H]1CCCNC1=O [Compound 1137] here?
Answer: 2 to 10 µM

Question: CC(C)(C)OC(=O)Nc1cccn([C@@H](CC2CC2)C(=O)N[C@H](C#N)C[C@@H]2CCNC2=O)c1=O (single isomer, unassigned) [505 (Isomer 2)] was tested. Which EC50 did it give?
Answer: > 30 µM

Question: With COc1ccc(Cl)c2[nH]c(C(=O)N[C@@H](CC3CC3)C(=O)N[C@H](C#N)C[C@@H]3CCCNC3=O)cc12 [Compound 898, 7-chloro-N-[(1S)-2-[[(1S)-1-cyano-2-[(3S)-2-oxo-3-piperidyl]ethyl]amino]-1-(cyclopropylmethyl)-2-oxo-ethyl]-4-methoxy-1H-indole-2-carboxamide] as the compound, how does the EC50 read?
Answer: < 2 µM

Question: Which EC50 does the source give for COc1cccc2[nH]c(C(=O)N[C@@H](CC3CC3)C(=O)N[C@@H](C#N)C[C@@H]3CCCNC3=O)cc12 [Compound 491B] here?
Answer: 10 to 30 µM

Question: Which EC50 does the source give for COc1cccc2[nH]c(C(=O)N3CC4(CCC4)CC3C(=O)N[C@H](C#N)C[C@@H]3CCNC3=O)cc12 (single isomer, unassigned) [399A (Isomer 1)] here?
Answer: < 2 µM

Question: N#C[C@H](C[C@@H]1CCNC1=O)NC(=O)[C@@H](CC1CC1)n1cccc(NCC(F)(F)F)c1=O (single isomer, unassigned) [467 (Isomer 2)] was tested. Which EC50 did it give?
Answer: > 30 µM

Question: COc1cc(Cl)cc2[nH]c(C(=O)N[C@@H](CC3CC3)C(=O)N[C@H](C#N)C[C@@H]3CCCNC3=O)cc12 [Compound 906, 6-chloro-N-[(1S)-2-[[(1S)-1-cyano-2-[(3S)-2-oxo-3-piperidyl]ethyl]amino]-1-(cyclopropylmethyl)-2-oxo-ethyl]-4-methoxy-1H-indole-2-carboxamide] was tested. Which EC50 did it give?
Answer: < 2 µM

Question: How did the EC50 turn out when N#C[C@H](C[C@@H]1CCCNC1=O)NC(=O)[C@H](CC1CC1)NC(=O)c1cc2ccc(F)c(Cl)c2[nH]1 [Compound 828, 7-chloro-N-[(1S)-2-[[(1S)-1-cyano-2-[(3S)-2-oxo-3-piperidyl]ethyl]amino]-1-(cyclopropylmethyl)-2-oxo-ethyl]-6-fluoro-1H-indole-2-carboxamide] was run?
Answer: < 2 µM

Question: How did the EC50 turn out when COc1ccc2[nH]c(C(=O)N[C@@H](CC3CC3)C(=O)N[C@H](C#N)C[C@@H]3CCCNC3=O)cc2n1 [Compound 621, N-[(1S)-2-[[(1S)-1-cyano-2-[(3S)-2-oxo-3-piperidyl]ethyl]amino]-1-(cyclopropylmethyl)-2-oxo-ethyl]-5-methoxy-1H-pyrrolo[3,2-b]pyridine-2-carboxamide] was run?
Answer: < 2 µM

Question: Which EC50 does the source give for N#Cc1ccc2cc(C(=O)N[C@@H](CC3CC3)C(=O)N[C@H](C#N)C[C@@H]3CCCNC3=O)[nH]c2c1 [Compound 862, 6-cyano-N-[(1S)-2-[[(1S)-1-cyano-2-[(3S)-2-oxo-3-piperidyl]ethyl]amino]-1-(cyclopropylmethyl)-2-oxo-ethyl]-1H-indole-2-carboxamide] here?
Answer: < 2 µM

Question: For CC1(C)CCC(C[C@@H](C#N)NC(=O)[C@H](CC2CC2)NC(=O)c2cc3cccc(Cl)c3[nH]2)C(=O)N1 (single isomer, unassigned) [Compound 749 (Isomer 2)], which EC50 is on record?
Answer: 2 to 10 µM

Question: With COc1cccc2[nH]c(C(=O)N3C[C@H](C(C)(C)C)C[C@H]3C(=O)N[C@H](C#N)C[C@@H]3CCNC3=O)cc12 [Compound 655, (2S,4S)-4-(tert-butyl)-N-((S)-1-cyano-2-((S)-2-oxopyrrolidin-3-yl)ethyl)-1-(4-methoxy-1H-indole-2-carbonyl)pyrrolidine-2-carboxamide] as the compound, how does the EC50 read?
Answer: 10 to 30 µM

Question: For COc1cc(Cl)cc2[nH]c(C(=O)N[C@@H](CC(C)(C)C)C(=O)N[C@H](C#N)C[C@@H]3CCCNC3=O)cc12 [Compound 1149], which EC50 is on record?
Answer: < 2 µM

— patent publication US11524940B1, “Inhibitors of cysteine proteases and methods of use thereof” (priority 2020, dated 2022)
